Reference: EP4038059B1, “SUBSTITUTED CARBAZOLE COMPOUNDS” (Bristol-Myers Squibb Company, priority 2019, dated 2021)

Key:
Format in all cases: cell-based
[1] = biological target: T1, human TLR7 (Homo sapiens, UniProt Q9NYK1); test: TLR7 inhibition reporter assay (HEK-Blue SEAP); details: HEK-Blue cells overexpressing human TLR7, stimulated with gardiquimod 7.5 µM, 22 h incubation
T1 construct: host or cells: HEK-Blue cells
T1 sequence (Q9NYK1 27-1049): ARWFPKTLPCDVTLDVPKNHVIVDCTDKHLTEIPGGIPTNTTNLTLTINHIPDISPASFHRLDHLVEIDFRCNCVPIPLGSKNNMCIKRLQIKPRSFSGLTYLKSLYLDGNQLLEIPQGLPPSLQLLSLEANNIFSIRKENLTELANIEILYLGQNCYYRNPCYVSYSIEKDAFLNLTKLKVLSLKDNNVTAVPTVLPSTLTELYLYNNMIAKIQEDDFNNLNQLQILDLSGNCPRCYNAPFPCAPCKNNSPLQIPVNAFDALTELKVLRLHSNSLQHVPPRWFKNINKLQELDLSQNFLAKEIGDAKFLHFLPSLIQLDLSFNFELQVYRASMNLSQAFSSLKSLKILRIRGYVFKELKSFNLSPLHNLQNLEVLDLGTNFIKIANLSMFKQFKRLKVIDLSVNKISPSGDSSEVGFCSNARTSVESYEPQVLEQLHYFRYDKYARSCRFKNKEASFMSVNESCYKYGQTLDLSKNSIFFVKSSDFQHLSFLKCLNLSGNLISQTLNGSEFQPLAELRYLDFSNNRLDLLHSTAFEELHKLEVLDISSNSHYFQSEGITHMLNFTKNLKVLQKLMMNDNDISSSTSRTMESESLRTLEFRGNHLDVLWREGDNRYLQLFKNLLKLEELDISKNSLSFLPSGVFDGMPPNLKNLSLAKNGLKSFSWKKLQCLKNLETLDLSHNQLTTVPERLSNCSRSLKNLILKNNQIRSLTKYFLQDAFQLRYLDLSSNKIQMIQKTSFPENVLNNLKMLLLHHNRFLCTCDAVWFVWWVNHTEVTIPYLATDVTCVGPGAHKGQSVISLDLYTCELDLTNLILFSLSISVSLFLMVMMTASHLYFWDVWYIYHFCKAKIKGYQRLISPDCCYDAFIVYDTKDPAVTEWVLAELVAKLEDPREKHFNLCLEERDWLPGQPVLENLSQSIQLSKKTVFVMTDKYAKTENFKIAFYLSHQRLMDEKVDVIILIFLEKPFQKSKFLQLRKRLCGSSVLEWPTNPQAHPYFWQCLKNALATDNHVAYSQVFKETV
Experimental: (§1) HEK-Blue™-cells (Invivogen) overexpressing human TLR7, TLR8 or TLR9 receptors were used for screening inhibitors of these receptors using an inducible SEAP (secreted embryonic alkaline phosphatase) reporter gene under the control of the IFN-β minimal promoter fused to five NF-κB and AP-1-binding sites. Briefly, cells are seeded into Greiner 384 well plates (15000 cells per well for TLR7, 20,000 for TLR8 and 25,000 for TLR9) and then treated with test compounds in DMSO to yield a final dose response concentration range of 0.05 nM - 50 µM. After a 30 minute compound pre-treatment at room temperature, the cells are then stimulated with a TLR7 ligand (gardiquimod at a final concentration of 7.5 µM), TLR8 ligand (R848 at a final concentration of 15.9 µM) or TLR9 ligand (ODN2006 at a final concentration of 5 nM) to activate NF-κB and AP-1 which induce the production of SEAP. After a 22 h incubation at 37°C, 5% CO2, SEAP levels are determined with the addition of HEK-Blue™ Detection reagent (Invivogen), a cell culture medium that allows for detection of SEAP, according to manufacturer's specifications. The percent inhibition is determined as the % reduction in the HEK-Blue signal present in wells treated with agonist plus DMSO alone compared to wells treated with a known inhibitor.

[2] = biological target: T2, human TLR8 (Homo sapiens, UniProt Q9NR97); test: TLR8 inhibition reporter assay (HEK-Blue SEAP); details: HEK-Blue cells overexpressing human TLR8, stimulated with R848 15.9 µM, 22 h incubation
T2 construct: host or cells: HEK-Blue cells
T2 sequence (Q9NR97 27-1041): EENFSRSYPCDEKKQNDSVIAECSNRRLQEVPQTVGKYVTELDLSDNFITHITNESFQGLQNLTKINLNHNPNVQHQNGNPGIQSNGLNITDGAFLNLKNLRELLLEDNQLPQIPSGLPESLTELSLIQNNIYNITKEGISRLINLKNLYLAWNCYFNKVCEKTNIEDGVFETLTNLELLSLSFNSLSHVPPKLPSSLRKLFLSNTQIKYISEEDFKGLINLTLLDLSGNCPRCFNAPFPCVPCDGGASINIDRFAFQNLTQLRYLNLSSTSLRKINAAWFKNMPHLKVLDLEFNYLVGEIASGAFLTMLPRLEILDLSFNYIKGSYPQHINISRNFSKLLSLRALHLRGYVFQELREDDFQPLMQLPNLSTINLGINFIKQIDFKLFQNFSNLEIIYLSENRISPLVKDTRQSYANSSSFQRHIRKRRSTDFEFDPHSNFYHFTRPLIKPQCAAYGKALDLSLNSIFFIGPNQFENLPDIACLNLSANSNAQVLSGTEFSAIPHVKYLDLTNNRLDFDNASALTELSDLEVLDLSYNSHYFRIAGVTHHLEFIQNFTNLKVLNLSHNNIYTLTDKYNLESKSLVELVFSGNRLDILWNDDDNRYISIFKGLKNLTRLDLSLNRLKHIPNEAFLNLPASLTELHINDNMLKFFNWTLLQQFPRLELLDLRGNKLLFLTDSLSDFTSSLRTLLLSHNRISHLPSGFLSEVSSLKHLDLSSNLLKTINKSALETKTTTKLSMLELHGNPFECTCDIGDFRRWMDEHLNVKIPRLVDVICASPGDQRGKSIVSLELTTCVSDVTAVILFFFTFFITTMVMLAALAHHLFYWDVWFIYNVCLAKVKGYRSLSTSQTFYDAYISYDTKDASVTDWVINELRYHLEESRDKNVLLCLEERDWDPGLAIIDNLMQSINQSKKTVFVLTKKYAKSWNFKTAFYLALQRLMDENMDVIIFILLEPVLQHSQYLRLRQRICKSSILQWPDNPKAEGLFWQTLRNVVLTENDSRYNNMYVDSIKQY
Experimental: as §1

[3] = biological target: T3, human TLR9 (Homo sapiens, UniProt Q9NR96); test: TLR9 inhibition reporter assay (HEK-Blue SEAP); details: HEK-Blue cells overexpressing human TLR9, stimulated with ODN2006 5 nM, 22 h incubation
T3 construct: host or cells: HEK-Blue cells
T3 sequence (Q9NR96 26-1032): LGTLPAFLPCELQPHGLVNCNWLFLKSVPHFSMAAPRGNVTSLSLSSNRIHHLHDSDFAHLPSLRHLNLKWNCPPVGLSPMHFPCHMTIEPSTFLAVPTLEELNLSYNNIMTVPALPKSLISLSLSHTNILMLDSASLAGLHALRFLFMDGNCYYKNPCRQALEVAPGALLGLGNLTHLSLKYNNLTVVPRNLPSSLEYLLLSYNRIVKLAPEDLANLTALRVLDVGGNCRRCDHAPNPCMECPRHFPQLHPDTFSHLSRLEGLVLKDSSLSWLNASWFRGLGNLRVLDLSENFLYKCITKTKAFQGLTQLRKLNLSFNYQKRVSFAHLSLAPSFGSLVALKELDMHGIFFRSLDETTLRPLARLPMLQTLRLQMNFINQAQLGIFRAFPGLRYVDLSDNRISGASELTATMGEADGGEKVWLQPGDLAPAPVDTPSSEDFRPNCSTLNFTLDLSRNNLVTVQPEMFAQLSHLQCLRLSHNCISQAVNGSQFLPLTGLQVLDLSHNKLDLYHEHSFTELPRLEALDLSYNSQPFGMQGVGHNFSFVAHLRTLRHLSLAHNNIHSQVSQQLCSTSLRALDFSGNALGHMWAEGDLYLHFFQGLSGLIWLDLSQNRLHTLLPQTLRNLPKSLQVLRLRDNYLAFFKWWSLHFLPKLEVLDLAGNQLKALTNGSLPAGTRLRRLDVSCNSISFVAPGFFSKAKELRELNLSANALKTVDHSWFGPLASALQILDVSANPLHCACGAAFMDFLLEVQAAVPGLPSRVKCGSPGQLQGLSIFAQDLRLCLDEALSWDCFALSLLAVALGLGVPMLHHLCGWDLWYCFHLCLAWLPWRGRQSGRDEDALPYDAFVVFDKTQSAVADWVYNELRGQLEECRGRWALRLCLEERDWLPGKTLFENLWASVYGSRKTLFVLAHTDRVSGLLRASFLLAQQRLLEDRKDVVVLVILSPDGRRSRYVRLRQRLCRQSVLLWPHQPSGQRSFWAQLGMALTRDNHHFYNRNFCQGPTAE
Experimental: as §1

Row | Structure (SMILES) | IC50 [1] [nM] | IC50 [2] [nM] | IC50 [3] [nM]
1 | Cc1c(-c2ccc3c(c2)[nH]c2ccc(C4CCNCC4)cc23)cn(C)c(=O)c1C [Example 5, 1,3,4-trimethyl-5-(6-(piperidin-4-yl)-9H-carbazol-2-yl)pyridin-2(1H)-one] | 16 | 29 | 182
2 | COc1cc(-c2cc3[nH]c4ccc(C5CCCN(CCS(C)(=O)=O)C5)cc4c3c(C)c2C)cn2ncnc12 (stereo not drawn) [Example 32] | 9.4 | 2 | 802
3 | COc1cc(-c2cc3[nH]c4ccc(C5CN(C6COC6)C5)cc4c3c(C)c2C)cn2ncnc12 [Example 36] | 5.6 | 1.8 | 861
4 | Cn1cc(-c2ccc3c(c2)[nH]c2ccc(C4CCNCC4)cc23)cn1 [Example 8, 2-(1-methyl-1H-pyrazol-4-yl)-6-(piperidin-4-yl)-9H-carbazole] | 1380 | 861 | 648
5 | COc1cc(-c2cc3[nH]c4ccc(C5CN(C(=O)CN(C)C)C5)cc4c3c(C)c2C)cn2ncnc12 [Example 35] | 4.5 | 3.3 | 845
6 | c1cncc(-c2ccc3c(c2)[nH]c2ccc(C4CCNCC4)cc23)c1 [Example 4, 6-(piperidin-4-yl)-2-(pyridin-3-yl)-9H-carbazole] | 1470 | 1800 | 541
7 | COc1cc(-c2cc3[nH]c4ccc(C5CN(CC#N)C5)cc4c3c(C)c2C)cn2ncnc12 [Example 39] | 11 | 4 | 1240
8 | COc1cc(-c2cc3[nH]c4ccc(C5CCCN(C6CCOCC6)C5)cc4c3c(C)c2C)cn2ncnc12 (stereo not drawn) [Example 28, 2-(8-methoxy-[1,2,4]triazolo[1,5-a]pyridin-6-yl)-3,4-dimethyl-6-(1-(tetrahydro-2H-pyran-4-yl)piperidin-3-yl)-9H-carbazole] | 7.8 | 0.7 | 523
9 | COc1cc(-c2cc3[nH]c4ccc(C5CCCN(CC(C)(C)O)C5)cc4c3c(C)c2C)cn2ncnc12 (stereo not drawn) [Example 31] | 8.1 | 1.2 | 587
10 | Cc1cc2c(cc1-c1cn(C)c(=O)c(C)c1C)[nH]c1ccc(C3CCNCC3)cc12 [Example 16] | 35 | 5.5 | 158
11 | Cc1cc(-c2ccc3c(c2)[nH]c2ccc(C4CCNCC4)cc23)cn2ncnc12 [Example 3, 2-(8-methyl-[1,2,4]triazolo[1,5-a]pyridin-6-yl)-6-(piperidin-4-yl)-9H-carbazole] | 109 | 358 | 668
12 | Cc1cc2c(cc1-c1cn(C)c(=O)c(C)c1C)[nH]c1ccc(C3CCN(CC(C)(C)O)CC3)cc12 [Example 24] | 68 | 1.5 | 388

The next compounds have a lower IC50 [1] than those just listed; values first:

Row | IC50 [1] [nM] | IC50 [2] [nM] | IC50 [3] [nM] | Structure (SMILES)
13 | 3.1 | 1 | 228 | COc1cc(-c2cc3[nH]c4ccc(C5CNC5)cc4c3c(C)c2C)cn2ncnc12 [Example 29, 6-(azetidin-3-yl)-2-(8-methoxy-[1,2,4]triazolo[1,5-a]pyridin-6-yl)-3,4-dimethyl-9H-carbazole]
14 | 0.7 | 6.8 | 349 | Cc1cc(-c2cc(C)c3ncnn3c2)cc2[nH]c3ccc(C4CCNCC4)cc3c12 [Example 13]
15 | 1.3 | 2.5 | 321 | COc1cc(-c2cc3[nH]c4ccc(C5CCCN(CC#N)C5)cc4c3c(C)c2C)cn2ncnc12 (stereo not drawn) [Example 34]
16 | 1.5 | 12 | 60 | Cc1cc(-c2cc(C)c3c(c2)[nH]c2ccc(C4CCN(CC(C)(C)O)CC4)cc23)cc(C)n1 [Example 21]
17 | 1.2 | 1.4 | 318 | Cc1cc2c(cc1-c1cc(C)c3ncnn3c1)[nH]c1ccc(C3CCNCC3)cc12 [Example 14, 3-methyl-2-(8-methyl-[1,2,4]triazolo[1,5-a]pyridin-6-yl)-6-(piperidin-4-yl)-9H-carbazole]
18 | 1.4 | 6.8 | 153 | COc1cc(-c2cc(C)c3c(c2)[nH]c2ccc(C4CCNCC4)cc23)cn2ncnc12 [Example 12]
19 | 1.9 | 1.4 | 108 | COc1cc(-c2cc3[nH]c4ccc(C5CCNCC5)cc4c3cc2C)cn2ncnc12 [Example 17]
20 | 1.8 | 0.4 | 264 | COc1cc(-c2cc3[nH]c4ccc(C5CCN(CC(C)(C)O)CC5)cc4c3c(C)c2C)cn2ncnc12 [Example 25]
